Assay [1] relates to TU-BcX-4IC tumoroids. The experiment in a line: Library screening of NCI approved anti-cancer drugs: tumoroid integrity/disintegration by nuclear count in projection images (viability/spheroid disintegration assay). The settings on record: for minimal effective concentration: Homo sapiens, TU-BcX-4IC, 120 h, read-out: Effective concentration, 3D tumoroids, 5 days treatment, tumoroid integrity by nuclear count, tested at 10 nM to 100 uM; for Viability HIT?: also hit in viability/spheroid disintegration assay, 10 μM.
Description: In addition, positive and negative controls were included in the test plates.
During incubation with compounds, tumoroids were monitored daily using TL imaging. Image analysis allowed characterization of tumoroid size, diameter, compactness, and integrity, as well as optical density (FIG. 2B, FIG. 7). Images of tumoroids were taken prior to compound treatment, and during day 3 and day 5 of compound treatment. For the end point assay, tumoroids were stained with viability and nuclear dyes on day 5 of compound treatment. Cells were stained with a combination of Hoechst, calcein AM, and Ethidium Homodimer III (EthD-III) and analyzed using high content imaging for complex phenotypic analysis; a subset of plates was set aside for additional assays including Cell Painting.
Images of organoids were taken with a 10× objective using Z-stack with a step size of 8 mm. Nuclei, live cells, and dead cells of stained cells were detected using DAPI, FITC, and TexasRed channels respectively. Maximum projection images were created from Z-stacks and analyzed as described in Methods. Multiple read-outs were generated characterizing spheroid area, diameter, intensities, and cell viability. In addition, cells inside each spheroid were counted using a nuclear stain. […] Suspended cells were plated into U-shape 384 well plates using a Biomek i7 automated liquid handler, incubated for 48 hours, and then treated with compounds, stained, and imaged. The protocols for compound additions, media, and staining included gentle media dispensing processes. Consecutively, tumoroids were cultured and monitored by automated imaging. Additionally, use of a collaborative robot enabled moving plates from the incubator to the imaging system, where transmitted light imaging or fluorescent imaging protocols were initiated.
For screening the compound library, maximum projection images may be employed. Spheroid disintegration is visible as an increase of spheroid size, in contrast to nicely shaped, round images of intact spheroids. Tumoroid disintegration can be described by several measurements: for example, increase in organoid area/diameter. Most accurate measurements may be done by counting cells or nuclei inside organoids using maximum projection images. […] Disintegrated tumoroids are made up of cells which are not held together in a tight aggregate but instead are loosely piled up in the well bottom resulting in 1) an increased projected area and 2) an increase in nuclear count in the projection images.
Simple nuclei count analysis in projection images was used as a reliable surrogate marker for organoid integrity/dis-integration.

Assay [2] has as its system TU-BcX-4IC 3D cultures. The experiment in a line: CellTiter-Glo 3D ATP assay, 3D culture. The settings on record: for EC50: Homo sapiens, TU-BcX-4IC, 120 h, read-out: EC50, ATP 3D. A general note: Cellular ATP, detected with luciferase, serves as a proxy for viable cell number.
Description: (§1) Cell metabolism may be measured by ATP level as another readout for effects of anti-cancer drugs that is related to cytotoxicity. […] Compounds may be tested using 7 point 5× dilutions starting from 100 uM. In the present examples, compound effects on 2D culture and 3D cultures were compared, using imaging and CellTiter-Glo 3D methods. Cultures were set up in parallel, using same cell number (2000). Cultures were allowed to grow for 48 hours, then treated with compounds for 5 days.
The subject of assay [3] is TU-BcX-4IC 3D cultures. The assay is described as follows: Imaging read-out, 3D culture. The note with it: Homo sapiens, 120 h, read-out: EC50, Imaging 3D.
Description: (§2) Cell metabolism may be measured by ATP level as another readout for effects of anti-cancer drugs that is related to cytotoxicity. In the present examples, a subset of 12 compounds were used for evaluation of compound effects, using the CellTiter-Glo 3D assay (Promega), which detects ATP levels. Compounds may be tested using 7 point 5× dilutions starting from 100 uM. In the present examples, compound effects on 2D culture and 3D cultures were compared, using imaging and CellTiter-Glo 3D methods. Cultures were set up in parallel, using same cell number (2000). Cultures were allowed to grow for 48 hours, then treated with compounds for 5 days.
(§3) Images were analyzed using MetaXpress Software (Molecular Devices). Count Nuclei or Cell Scoring application modules were used for nuclear count live/dead assessment, or evaluation of cell number positive for specific markers. Output measurements included spheroid width, spheroid area, average intensity for calcein AM or EthD-III, counts of all nuclei, and evaluation of average nuclear size and average intensities. In addition, calcein AM-positive cells were counted, and their area and intensity values were recorded. In addition to cell count, areas and intensities could be determined for live (EthD-III negative) and dead (EthD-III positive) cells.
Assay [4] relates to TU-BcX-4IC 2D culture. The experiment in a line: Imaging read-out, 2D culture. The note with it: Homo sapiens, 120 h, read-out: EC50, Imaging 2D.
Description: as §2, §3
The test system of assay [5] is TU-BcX-4IC tumoroids. The assay is described as follows: Secondary follow-up 3D assay, 7-point concentration curves, tumoroid disintegration measurement. The assay is classed as cell-based, human. The settings on record: Homo sapiens, TU-BcX-4IC, 120 h. As for the experimental part:
10 compounds, including panobinostat, carfilzomib, and bortezomib were tested across 7 concentrations in the 1-10000 nM range. Spheroids were treated for 5 days with these compounds, then stained as described above (FIG. 4). […] EC50 values (Table 2) were determined using tumoroid disintegration measurement (nuclear count in projection images).
Automated staining of spheroids was performed for one hour. After staining, dye solution was replaced with 1×PBS.

Assay [6] relates to TU-BcX-4IC 2D culture. The experiment in a line: CellTiter-Glo 3D ATP assay, 2D culture. The settings on record: for EC50: Homo sapiens, TU-BcX-4IC, 120 h, read-out: EC50, ATP 2D.
Description: as §1
Assay [7] concerns TU-BcX-4IC tumoroids. The assay is described as follows: Cell Painting assay adapted for 3D tumoroids, phenotypic distance score and cluster analysis. The note with it: 10 μM, phenotypic distance relative to DMSO controls.
Description: For phenotypic profiling, the tumoroids were treated with a single 10 μM concentration of compound, using the methods described above. Notable changes in the staining protocol included increased times for dye incubation, fixation, and permeabilization. […] Images were acquired with Z-stacks using 20× magnification, and the analysis was carried out on projection (maximum) images.
Unlike the previous analysis that included cell count or live-dead evaluation, multiple read-outs may be collected from the whole spheroid to form their phenotypic profile. […] Instead, the spheroid images may also acquired in transmitted light (bright field), and these images may be used to identify the spheroid structures using a deep learning-based image segmentation approach which may improve the analysis. Features extracted from each spheroid may include object morphologies, intensities, and texture measurements for, e.g., the six cell stains and bright field images.
To determine hits from the assay, a phenotypic distance score may be calculated based on the PCA (principal component analysis) components.
This score is a measure of the phenotypic effect of the compounds on the tumoroids relative to the controls. All hits may then be clustered based on their phenotypic profiles using the normalized principal component scores.
To image the organoids labeled with the cell painting dyes, the ImageXpress Confocal HT.ai system, equipped with a laser light source, was used for image acquisition. The confocal mode (pinhole size 60 μm) was used to image organoids with a 20× Plan Apo Lambda, NA 0.75 objective, with z-stacking enabled (5p m step size). The maximum projection image was selected in the acquisition setup.
Images were analyzed using MetaXpress Software (Molecular Devices). […] For the Cell Painting analysis, image analysis was done in the IN Carta image analysis software. To segment the organoids, a deep learning-based model was created based on the TL channel to segment individual organoids. Following segmentation, measurements that include intensity, shape, area, and texture were extracted from all 6 fluorescent channels. In total, 210 analytical features were obtained from each organoid.
The plate was first incubated with MitoTracker DeepRed (500 nM) for 2 hours. The samples were fixed with 4% paraformaldehyde (PFA) in HBSS for 60 minutes. All wash steps were carried out by exchanging half the volume in each well with HBSS to minimize displacement of the organoids from the center of the well.
Measurements from IN Carta were exported as a CSV file and uploaded into StratoMineR (Core Life Analytica), a web-based data analytics platform for hit picking and phenotypic clustering.
Assay [8] deals with TU-BcX-4IC tumoroids. The assay is described as follows: Label-free transmitted light imaging of tumoroids, deep learning segmentation (IN Carta). The note with it: 10 uM, 5 days, no staining, 10× objective. It is filed as cell-based, human. As for the experimental part: Images were analyzed using SYNAP module of InCartasoftware (Molecular Devices). Analysis mask shown in yellow.
A deep learning-based segmentation (IN Carta Image Analysis Software) approach was used to find all tumoroid objects in transmitted light, either intact or affected. Following segmentation and data extraction, a machine learning tool was utilized to classify all tumoroids into intact, intermediate or severely affected categories. Affected tumoroids were flagged by increase in the object areas (criteria were set as AVERAGE 2*STDEV from the DMSO-treated), allowing detection of effective compounds (FIG. 7, Table 6). An advantage of this method is that compound effects could be interrogated in a label-free manner during multiple time points. However, the analysis allowed some ambiguity in determining accurate areas of the objects, especially when the phenotypic changes were weak or moderate (FIG. 7). The endpoint fluorescent imaging and analysis enabled more robust measurements and compound selection (Tables 5 and 6).
Transmitted light (TL) and fluorescent (FL) images were acquired on the ImageXpress Confocal HT.ai High-Content Imaging System (Molecular Devices) and images analyzed using MetaXpress High-Content Image Analysis Software. Tumoroid images were acquired in TL with approximately 60 μm offset. Zstack images were acquired with the 10× objectives using confocal mode. Best focus projection images were used for TL analysis, and maximum projection images were used for FL analysis. MetaXpress Software or IN Carta Image Analysis Software was used for analysis.

Where [9] appears, read: 3D assay, 7-point concentration curves, 5 days, nuclear count in projection images, read-out: EC50.

Where a name gives a salt, the structure may show the parent alone. Read-outs that look alike come from different tables or passages of the source.

One may read the EC50 as the concentration at which the effect is half-maximal. As for `CC(C)C[C@H](NC(=O)[C@H](Cc1ccccc1)NC(=O)c1cnccn1)B(O)O` [Bortezomib], the minimal effective concentration in assay [1] came out at 0.01 µM. Also, the “Efficacy at low concentrations” value in assay [1] (library screen, tumoroid integrity by nuclear count) is “efficacy at low concentrations”. The EC50 in assay [2] was determined as 15 nM; in assay [3], 70 nM; in assay [4] it was 10 nM; in assay [5] (setting [9]), 17 nM; in assay [6], 10 nM.

Turning to `CC(C)C[C@H](NC(=O)[C@H](CCc1ccccc1)NC(=O)CN1CCOCC1)C(=O)N[C@@H](Cc1ccccc1)C(=O)N[C@@H](CC(C)C)C(=O)[C@@]1(C)CO1` [Carfilzomib], in assay [1], the “Viability HIT?” value is “no”. Further, the EC50 in assay [2] was 5820 nM; in assay [3] it was 73 nM; in assay [4], 1050 nM; in assay [6], 1040 nM. The “Distance Score” value in assay [7] amounted to 5.007.

For `COc1c(OCCCN2CCOCC2)ccc2c1N=C(NC(=O)c1cnc(N)nc1)N1CCN=C21` [Copanlisib tris-HCl], in assay [1], the minimal effective concentration is 0.1 µM and the “Viability HIT?” value was “yes”. The EC50 in assay [5] (setting [9]) was 28 nM. Moreover, the “Tumoroids effected by compound in transmitted light images” value (shortened to “Tumoroids effected by compound”) in assay [8] is given as “effected by compounds”. In addition, in assay [7], the “Distance Score” value is reported as 5.147.

In the case of `O=C1c2c(O)ccc(O)c2C(=O)c2c(NCCNCCO)ccc(NCCNCCO)c21` [Mitoxantrone], the “Viability HIT?” value in assay [1] is “yes”. The “Tumoroids effected by compound” value in assay [8] was “effected by compounds”. The “Distance Score” value in assay [7] was determined as 6.688.

As for `Cc1[nH]c2ccccc2c1CCNCc1ccc(/C=C/C(=O)NO)cc1` [Panobinostat], the EC50 in assay [2] stood at 84 nM; in assay [3], 141 nM; in assay [4], 6 nM; in assay [5] (setting [9]) it was 54 nM; in assay [6], 46 nM.

For the molecule `C/C=C1\NC(=O)[C@H]2CSSCC/C=C/[C@H](CC(=O)N[C@H](C(C)C)C(=O)N2)OC(=O)[C@H](C(C)C)NC1=O` [Romidepsin], the EC50 in assay [2] was approximately 10 nM; in assay [3], less than 10 nM; in assay [4], approximately 10 nM; in assay [5] it was 36 nM; in assay [6] it was approximately 10 nM.

Turning to `CO[C@H]1C[C@@H]2CC[C@@H](C)[C@@](O)(O2)C(=O)C(=O)N2CCCC[C@H]2C(=O)O[C@H]([C@H](C)C[C@@H]2CC[C@@H](OC(=O)C(C)(CO)CO)[C@H](OC)C2)CC(=O)[C@H](C)/C=C(\C)[C@@H](O)[C@@H](OC)C(=O)[C@H](C)C[C@H](C)/C=C/C=C/C=C/1C` [Temsirolimus], the minimal effective concentration in assay [1] turned out to be 1 µM. Also, in assay [1], the “Viability HIT?” value is “no”. Moreover, the “EC50, ATP 3D” value in assay [2] (3D culture, 2000 cells, 5 days treatment, CellTiter-Glo 3D) is given as “no fit”. The EC50 in assay [3] came out at 8520 nM; in assay [4] it was 10000 nM. In assay [6] (2D culture, 2000 cells, 5 days treatment, CellTiter-Glo 3D), the “EC50, ATP 2D” value is “no fit”. Also, the “Distance Score” value in assay [7] is given as 5.699.

Take `CC(=O)Nc1cccc(-n2c(=O)n(C3CC3)c(=O)c3c(Nc4ccc(I)cc4F)n(C)c(=O)c(C)c32)c1` [Trametinib]: the EC50 came out at 2620 nM in assay [2]; 8820 nM in assay [3]; 6270 nM in assay [4]; 70 nM in assay [5] (setting [9]); 7330 nM in assay [6].

As to `COc1cccc2c1C(=O)c1c(O)c3c(c(O)c1C2=O)C[C@@](O)(C(=O)CO)C[C@@H]3O[C@H]1C[C@H](N)[C@H](O)[C@H](C)O1` [doxorubicin], the “Nuclear count in projection images (qualitative)” value in assay [1] (3D tumoroids, 5 days) is given as “decrease in counted nuclei”. Also, the “Tumoroids effected by compound” value in assay [8] is listed as “effected by compounds”.

On to `COc1cc(OC)cc(N(CCNC(C)C)c2ccc3ncc(-c4cnn(C)c4)nc3c2)c1` [erdafitinib], for which, in assay [8], the “Tumoroids effected by compound” value is “effected by compounds”.

Values taken from patent US20240331158A1, “CELL PAINTING AND ANALYSIS IN 3D CELLULAR MODELS” (priority 2023, published 2024).
